This is an account of results in patent US10265329B2, “Altering steroid metabolism for treatment of steroid-dependent disease” (THE CLEVELAND CLINIC FOUNDATION, priority 2015, dated 2019).

A short description of series [1]: Phase II clinical trial NCT01393730: serum Abi metabolites before and after dutasteride. In kind it is in vivo, human. How it is done:
Twelve patients with CRPC undergoing treatment with Abi acetate at Cleveland Clinic were consented under an Institutional Review Board—approved protocol (Case 7813). Blood was collected using Vacutainer Plus serum blood collection tubes (#BD367814, Becton Dickenson, Franklin Lakes, N.J.), between 1 and 16 hours after the 1000 mg daily dose of Abi acetate was administered, and allowed to clot. Tubes were centrifuged at 2500 RPM or 1430×g for 10 minutes. Serum aliquots were frozen at −80° C. until processing. To study the effect of dutasteride on Abi metabolism, serum samples were collected from patients treated on a phase II clinical trial at Dana-Farber Cancer Institute (NCT01393730). Each patient received Abi acetate (1,000 mg daily) plus prednisone (5 mg daily) for 2 cycles (8 weeks) and then additional treatment with dutasteride ([…]) was initiated. Samples were collected on treatment with Abi alone and after addition of dutasteride (start of cycles 3, 4 and 7). Seventeen patients treated at this institution on this clinical trial had blood available from all 3 time points. One patient had Abi concentrations that were under the limit of detection and was later determine to have stopped treatment because of adverse effects and was therefore not included in the analysis. Drug metabolites and internal standard (d4-abiraterone, Toronto Research Chemicals Inc, Ontario Canada) were extracted from 100 μL of patient serum with methyl tert-butyl ether (Sigma Aldrich, St. Louis, Mo.), evaporated under a stream of nitrogen gas and reconstituted in methanol:water (50:50) prior to mass spectrometry analysis. Standard curves were generated using human serum spiked with known concentrations of each metabolite to enable determination of unknown concentrations in patient samples
Samples were analyzed on a ultra high-performance liquid chromatography station (Shimadzu, Kyoto, Japan) with a DGU-20A3R degasser, 2 LC-30AD pumps, a SIL-30AC autosampler, a CTO-10A column oven and a CBM-20A system controller in tandem with a QTRAP 5500 mass spectrometer (AB Sciex, Framingham, Mass.). Drug metabolites were ionized using electrospray ionization in positive ion mode. Multiple reaction monitoring was used to follow mass transitions for Abi, IS, and the metabolites (Table 1). Due to the similarity in structure and mass transitions for the metabolites it was necessary to separate them with chromatography. Separation of drug metabolites was achieved using a mobile phase consisting of LC-MS grade (Fisher) methanol: acetonitrile: water:formic acid (39:26:34:1) at a flow rate of 0.2 ml/min., and C18 analytical column; Zorbax Eclipse plus 150×2.1 mm, 3.5 μm (Agilent, Santa Clara, Calif.).

Another series concerns the target T1, SRD5A1 (Homo sapiens, UniProt P18405).
T1 sequence (P18405 1-259): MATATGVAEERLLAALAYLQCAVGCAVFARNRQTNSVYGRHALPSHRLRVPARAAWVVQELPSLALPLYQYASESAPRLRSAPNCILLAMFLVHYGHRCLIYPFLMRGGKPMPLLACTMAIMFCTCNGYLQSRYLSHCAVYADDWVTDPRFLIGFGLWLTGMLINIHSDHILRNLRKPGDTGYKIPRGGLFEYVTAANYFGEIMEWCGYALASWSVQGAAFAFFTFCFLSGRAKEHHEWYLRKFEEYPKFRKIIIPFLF
Conditions: LAPC4 cells.

The next series relates to LNCaP cells. As to the kind of experiment: Cell proliferation assay, DHT-stimulated growth. In kind it is cell-based, human. Conditions: DHT 0.5 nM, 2, 4 and 6 days. How it is done: LNCaP cells (0.1 million/mL) were seeded in 96-well plates and cultured in phenol red free RPMI-1640 mediums plus 10% charcoal stripped FBS with androgens and/or drugs. Medium was changed every other day. After 2, 4 or 6 days, cells were collected and lysed after treatment. Growth was then determined based on DNA content as detected by Hoechst stain and a Wallac Victor2 1420 Multilabel counter (Perkin Elmer). Two-tailed student's t-test was used to determine significance.

Another series has as its target T2, SRD5A (Homo sapiens, UniProt P18405).
T2 construct: endogenous in cells; host or cells: LAPC4
T2 sequence (P18405 1-259): T1 sequence (P18405 1-259)
Kind of series: Conversion of [3H]-AD to 5α-reduced androgens in LAPC4 cells. It counts as cell-based. Conditions: up to 100 μM; LAPC4 cells. How it is done:
(§1) Cell Line Metabolism: Cells were seeded and incubated in 12-well plates with 0.2 million cells/well for ˜24 h and then incubated with a mixture of radioactive ([^3H]-labeled) and non-radioactive androgens (final concentration, 100 nM; ˜1,000,000 cpm/well; PerkinElmer, Waltham, Mass.) at 37° C. Aliquots of medium were collected at the indicated times. Collected medium was treated with 1,000 units of β-glucuronidase (Helix pomatia; Sigma-Aldrich) at 65° C. for 2 h, extracted with 860 μL ethyl acetate:isooctane (1:1), and concentrated under nitrogen gas. Xenograft Metabolism: 10^7 LNCaP or VCaP cells were injected subcutaneously with Matrigel into surgically orchiectomized NSG mice that were implanted with 5 mg 90-day sustained-release DHEA pellets (Innovative Research of American, Sarasota, Fla.). Xenografts were harvested when they reached 1000 mm^3, minced, and cultured in DMEM with 10% FBS at 37° C. with mixture of radioactive ([^3H]-labeled) and non-radioactive androgens, or Abi, when they reached 1000 mm^3. Each xenograft was analyzed in triplicate in at least three independent experiments. Aliquots of medium were collected at the indicated times. Collected medium was treated with 1,000 units of β-glucuronidase at 65° C. for 2 h, extracted with 860 μL ethyl acetate:isooctane (1:1), and concentrated under nitrogen gas.
Dried samples were reconstituted in 50% methanol and injected into the HPLC. Steroids and drug metabolites were separated on Kinetex 100×2.1 mm, 2.6 μm particle size C18 reverse-phase column (Phenomenex, Torrance, Calif.) using a methanol/water gradient at 30° C. […] Alternatively, dried samples were applied to plastic-backed silica gel plates and separated by thin-layer chromatography (TLC) using a mobile phase of 3:1 chloroform:ethyl acetate, followed by exposure of the plates to a phosphorimager screen and quantitated with a Storm model 860 phosphorimager (Applied Biosystems, Foster City, Calif.). […] Results are shown as mean±SD.
Collected medium was treated with β-glucuronidase (Helix pomatia; Sigma-Aldrich), extracted with ethyl acetate:isooctane (1:1), and concentrated under nitrogen gas as described. Li et al., 523, 347-351 (2015).
Dried samples were reconstituted in 50% methanol and separated on Kinetex 100×2.1 mm, 2.6 μm particle size C18 reverse-phase column (Phenomenex, Torrance, Calif.) using a methanol/water gradient at 30° C. […] Results are shown as mean±SD.

The conditions of series [2]: patients; wide interpatient variability; cited from earlier work.
The target in another series is T3, CYP17A1 (Homo sapiens, UniProt P05093).
T3 construct: expressed in transfected cells
T3 sequence (P05093 1-508): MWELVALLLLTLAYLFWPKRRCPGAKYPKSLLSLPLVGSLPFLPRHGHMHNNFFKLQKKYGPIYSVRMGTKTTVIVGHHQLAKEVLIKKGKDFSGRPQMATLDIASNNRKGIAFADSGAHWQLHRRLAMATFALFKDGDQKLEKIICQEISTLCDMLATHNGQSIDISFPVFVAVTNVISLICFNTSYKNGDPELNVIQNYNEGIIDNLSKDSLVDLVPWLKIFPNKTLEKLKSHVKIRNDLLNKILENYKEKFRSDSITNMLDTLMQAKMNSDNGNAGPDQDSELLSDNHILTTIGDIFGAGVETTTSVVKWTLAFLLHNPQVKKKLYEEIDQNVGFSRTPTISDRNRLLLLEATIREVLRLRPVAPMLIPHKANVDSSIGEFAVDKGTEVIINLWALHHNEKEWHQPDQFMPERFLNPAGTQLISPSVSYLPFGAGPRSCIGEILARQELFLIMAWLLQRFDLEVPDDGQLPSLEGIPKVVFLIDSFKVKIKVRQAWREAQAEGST
Kind of series: Conversion of [3H]-pregnenolone to DHEA in 293 cells expressing CYP17A1. It counts as cell-based. The following applies: 1 nM drug; 3 h incubation; vehicle 70.1%.
From the text: LNCaP and VCaP cells were purchased from the American Type Culture Collection (Manassas, Va.) and maintained in RPMI-1640 with 10% FBS. LAPC4 cells were kindly provided by Dr. Charles Sawyers (Memorial Sloan Kettering Cancer Center, New York, N.Y.) and grown in Iscove's Modified Dulbecco's Medium with 10% FBS. C4-2 cells were kindly provided by Dr. Leland Chung (Cedars-Sinai Medical Center, Los Angeles, Calif.) and maintained in RPMI-1640 with 10% FBS. All experiments done with LNCaP and VCaP were done in plates coated with poly-DL-ornithine (Sigma-Aldrich, St. Louis, Mo.). A 293 cell line stably expressing human CYP17A1 was generated by transfection with plasmid pcDNA3-CYP17 (a generous gift of Dr. Walter Miller, University of California, San Francisco) and selection with G418. Cell lines was authenticated by DDC Medical (Fairfield, Ohio) and determined to be […] mycoplasma free with primers.
as §1, with “Collected medium was treated with 1,000 units of β-glucuronidase at 65° C. for 2 h, extracted with 860 μL ethyl acetate:isooctane (1:1), and concentrated under nitrogen gas.” left out
Dried samples were reconstituted in 50% methanol and injected into the HPLC. […] Alternatively, dried samples were applied to plastic-backed silica gel plates and separated by thin-layer chromatography (TLC) using a mobile phase of 3:1 chloroform:ethyl acetate, followed by exposure of the plates to a phosphorimager screen and quantitated with a Storm model 860 phosphorimager (Applied Biosystems, Foster City, Calif.). […]
Cell lines, drugs and constructs. […] Cell lines were authenticated by DDC Medical (Fairfield, Ohio) and determined to be mycoplasma free with primers. […]

Each structure is given as a SMILES string.

Method for SRD5A1: Cell Line Metabolism: 0.2 million/ml cells were seeded and incubated in 12-well plates for ˜24 h before incubation with the indicated drugs or a mixture of [^3H]-labeled (˜1,000,000 cpm/well; PerkinElmer, Waltham, Mass.) and non-radioactive androgens (final concentration, 100 nM) at 37° C. Collected medium was treated with β-glucuronidase (Helix pomatia; Sigma-Aldrich), extracted with ethyl acetate:isooctane (1:1), and concentrated under nitrogen gas as described.
Dried samples were reconstituted in 50% methanol and separated on Kinetex 100×2.1 mm, 2.6 μm particle size C18 reverse-phase column (Phenomenex, Torrance, Calif.) using a methanol/water gradient at 30° C. The column effluent was analyzed using a 254 nm UV-visible detector or β-RAM model 3 in-line radioactivity detector (IN/US Systems, Inc.) using Liquiscint scintillation cocktail (National Diagnostics, Atlanta, Ga.). All HPLC studies were conducted in triplicate and repeated at least 3 times in independent experiments. Results are shown as mean±SD.

For the compound `C[C@]12CC[C@H](O)C[C@@H]1CC[C@@H]1[C@@H]2CC[C@]2(C)C(c3cccnc3)=CC[C@@H]12` [Compound 3β-OH-5α-Abi, 17-(3-pyridyl)-5α-androsta-16-ene-3β-ol], in series [1] (cycle 3 vs. cycle 4), the “decline in mean serum concentration after the addition of dutasteride” value came to 73%.

On to `C[C@]12C=CC(=O)N[C@@H]1CC[C@@H]1[C@@H]2CC[C@]2(C)[C@@H](C(=O)Nc3cc(C(F)(F)F)ccc3C(F)(F)F)CC[C@@H]12` [dutasteride], for which the “block of conversion of D4A to 5α-Abi and 3α-OH-5α-Abi” value on SRD5A1 is “blocks conversion”.

With `CNC(=O)c1ccc(N2C(=S)N(c3ccc(C#N)c(C(F)(F)F)c3)C(=O)C2(C)C)cc1F` [enzalutamide, reference compound], the “effect on DHT-stimulated cell growth” value with LNCaP cells is given as “more potent than Abi”. For the same compound, the “effect on conversion from AD to 5α-reduced androgens” value on SRD5A is listed as “no detectable effect”.

By Cmax is commonly meant the highest concentration seen after dosing. As to `C[C@]12CC[C@H](O)CC1=CC[C@@H]1[C@@H]2CC[C@]2(C)C(c3cccnc3)=CC[C@@H]12` [Abi, Abiraterone, reference compound], in series [1] (Abi acetate 1000 mg daily plus prednisone alone, 16 patients), the “mean serum concentration, cycle 3” value stood at 191.2 nM. For the same compound, in series [1] (after addition of dutasteride 3.5 mg once daily, 16 patients), the “mean serum concentration, cycle 4” value was determined as 372.4 nM. In series [2], the Cmax was about 1000 nM. The “% conversion to DHEA” value at CYP17A1 worked out at 2.6%.

In the case of `CN1C(=O)CC[C@@H]2c3ccc(Cl)cc3CC[C@H]21` [LY191704], the “block of conversion of D4A to 5α-Abi and 3α-OH-5α-Abi” value at SRD5A1 was “blocks conversion”.
